Test results published in US5466436A, “Medicaments for treating inflammatory conditions or for analgesia” (Glaxo Group Limited, priority 1991, dated 1995).
Where a name gives a salt, the structure may show the parent alone.

Key:
[1] = system: indomethacin-induced gastric antral ulceration; assay: Inhibition of indomethacin-induced gastric antral ulceration in the rat (modified Satoh et al.); assay type: in vivo; conditions: for potency compared with other test compounds (in words): ranitidine bismuth citrate versus ranitidine hydrochloride and De-Nol, po; for potency compared with other test compounds (in words) / inhibition of indomethacin-induced lesions (in words): rats; for inhibition of indomethacin-induced lesions (in words): ranitidine bismuth citrate 1 to 100 mg/kg po
Experimental: The ability of ranitidine bismuth citrate to prevent indomethacin-induced gastric antral ulceration was compared with that of ranitidine hydrochloride and De-Nol™. Female rats, which had been fasted for 24 hours and then re-fed, received ranitidine bismuth citrate (1 to 100mg/kg), ranitidine hydrochloride (10 to 100mg/kg) or De-Nol™ (3 to 100mg/kg) by oral gavage. Ranitidine bismuth citrate was administered as a suspension and the other test compounds as solutions. Thirty minutes after dosing with the test compound, animals received indomethacin (60mg/kg sc) as an ulcerogenic stimulus and after a further 6 hours the animals were killed and the antral region assessed macroscopically for damage.

[2] = system: mucosal lesions of the gastrointestinal tract caused by non-steroidal anti-inflammatory drugs; assay: Tests in animals and humans: mucosal lesions of the gastrointestinal tract caused by non-steroidal anti-inflammatory drugs; assay type: in vivo
[3] = system: aspirin-induced injury to the gastric mucosa; conditions: human clinical study, N. Hudson et al., Gut 1992, 33 supplement, s47; cited from earlier work
[4] = listed as Ranitidine bismuth citrate
[5] = listed as ranitidine bismuth citrate

| Molecule | ED50 ([1]; Rattus norvegicus, female rats, oral gavage 30 min before indomethacin 60 mg/kg sc, antral damage assessed after a further 6 hours) | potency compared with other test compounds (in words) [1] | ED50 for inhibition of indomethacin-induced antral ulceration ([1]; female rats, oral gavage 30 min before indomethacin 60 mg/kg sc, antral damage assessed after a further 6 hours) | inhibition of indomethacin-induced lesions (in words) [1, 4] | inhibition of indomethacin-induced lesions (in words) [1, 5] | potency compared with other test compounds (in words) [1, 4] | potency compared with other test compounds (in words) [1, 5] | reduction of NSAID-caused mucosal lesions of the gastrointestinal tract (in words) [2] | protection from aspirin-induced injury to the gastric mucosa (in words) [3] |
| --- | --- | --- | --- | --- | --- | --- | --- | --- | --- |
| CNC(=C[N+](=O)[O-])NCCSCc1ccc(CN(C)C)o1 [Ranitidine Hydrochloride, ranitidine hydrochloride, reference compound] | 23.4 mg/kg | markedly less potent |  |  |  |  |  |  |  |
| N-[2-[[[5-[(dimethylamino)methyl]-2-furanyl]methyl]thio]ethyl]-N'-methyl-2-nitro-1,1-ethenediamine 2-hydroxy-1,2,3-propanetricarboxylate bismuth (3^+) complex [Ranitidine Bismuth Citrate] |  |  | 4.5 mg/kg p.o. | dose-related inhibition of indomethacin-induced lesions | prevent indomethacin induced gastric antral ulceration | relatively potent | markedly more potent than both ranitidine hydrochloride and tripotassium dicitrato bismuthate as DeNol™ | significantly reduced | substantial protection from aspirin-induced injury to the gastric mucosa |
